Data: paper PMC8773529 (Cancers, 2022)

How the values were obtained:
Type in all cases: cell-based, human
RWPE-1 cells [1] = assay: MTT assay, normal RWPE-1; conditions: mean ± SD
Method: (§1) MTT analysis was performed as described previously.
(§2) Cell absorbance results were substituted into the formula for the relative MTT level (%). It allows to calculate the viability of cells exposed to the test compounds. Cell viability is the percentage of MTT reduction in cells to which the test compounds were added compared to the control sample, where only the medium was added to the cells.
(§3) The relative MTT level was calculated using the formula: life time [100%] = A/B × 100% where: A—the test sample absorbance; B—the control sample absorbance.
(§4) The statistical analysis was performed using the Statistica 13.0 (StatSoft, Inc, Tulsa, OK, USA) program. Comparison between studied groups was performed by the paired Student’s t-test. Results were expressed as means ± SD, and considered statistically significant at p < 0.05. All data were calculated from 3 separate experiments. IC50 values were calculated using GraphPad Prism 6 software (GraphPad Software, San Diego, CA, USA).

DU-145 cells [2] = assay: MTT assay, DU-145; conditions: for IC50: MTT, 72 h, mean ± SD; for SI DU-145: SI = IC50 normal cell line (RWPE-1)/IC50 cancer cell line
Method: as §1, §2, §3, §4

LNCaP cells [3] = assay: MTT assay, LNCaP; conditions: for IC50: 72 h, MTT, mean ± SD; for SI LNCaP: SI = IC50 normal cell line (RWPE-1)/IC50 cancer cell line
Method: as §1, §2, §3, §4

PC3 cells = assay: MTT assay, PC3; conditions: SI = IC50 normal cell line (RWPE-1)/IC50 cancer cell line
Method: as §1, §2, §3, §4

LNCaP cells [4] = assay: Apoptosis detection (Annexin V/7-AAD flow cytometry), LNCaP; conditions: IC50 concentration, 72 h, % of cells
Method: (§5) Then, a commercially available kit (FITC:Annexin V Apoptosis Detection Kit I; BD Biosciences Pharmingen. San Jose, CA, USA) was used. The medium was removed from the plates and approximately 1 mL of PBS was added to the wells for rinsing, followed by 0.7 mL of trypsin, and left for 3 min. Then, the plate wells were washed twice with 0.5 mL PBS with 2% FBS and next the entire content of the given walls was transferred to test tubes. The tubes were centrifuged for 7 min in a centrifuge at 1700 rpm. The supernatant solution was removed. […] After this time, 0.4 mL of PBS with FBS was added to the tubes and mixed again. […] Annexin V-reactive cells, but not 7-AAD-reactive cells were in the early stage of apoptosis, while cells reactive with both reagents were in late-stage apoptosis or were dead.

[5] = tested on: IL-6 release by LNCaP cells; assay: Interleukin-6 ELISA, LNCaP; conditions: IC50 concentration, 72 h; control 40.1 pg/mL
Method: (§6) The sandwich ELISA assay is used to confirm the presence of interleukin 6 (IL-6) in the test cell line supernatant. Interleukin IL-6 ELISA kit was purchased from Diaclone SAS (Besancon Cedex, France). […] Before starting the test, a standard curve was prepared. An amount of 100 μL of test supernatant samples from the RWPE-1, LNCaP and DU145 cell lines incubated with the tested compounds, control solutions and blank were added to the plate’s wells. Then, 50 µL of diluted biotinylated anti-human interleukin-6 antibody was added to each well. The prepared plate was incubated at room temperature for one hour. At the end of this time, the solution in the plate wells was decanted and rinsed with the washing solution. After repeating the procedure three times, 100 μL solution of streptavidin covalently bound to horseradish peroxidase (HRP) was added to the wells. Then, the plates were incubated for 30 min. The next step was to remove the solution and rinse the plates three times. After adding 100 μL of tetramethylbenzidine (TMB) solution to each well, the plates were incubated for 15 min in the dark. In order to stop the reaction, 100 μL of H2SO4 solution were added. The absorbance of the tested samples was read using a spectrophotometer at 450 nm (Microplate Spectrophotometer Thermo Scientific™ Multiskan™ GO).

DU-145 cells [6] = assay: Apoptosis detection (Annexin V/7-AAD flow cytometry), DU-145; conditions: IC50 concentration, 72 h, % of cells
Method: as §5

DU145 cells = assay: LDH test, DU145; conditions: 72 h; tested at 10-60 µM, concentration of quoted value not stated
Method: (§7) Lactate dehydrogenase (LDH) as a cytosolic enzyme determined in culture medium is a marker of cell death. The LDH activity determination was performed after 72 h incubation of cells (1 × 10^4 cells per well) in 96-well plates with the selected conjugates of gradually decreasing concentration according to the procedure mentioned at earlier study by Chrzanowska et al.. The cytotoxicity of test compounds was expressed as % of LDH released from test cells. This parameter is calculated using the formula: cytotoxicity = [A test sample − A “low control”]/[A “high control” − A “low control”] where: A—absorbance, “Low control”—cells in DMEM medium with 2% FBS, “High control”—cells in DMEM with 2% FBS with 1% Triton X-100.

RWPE-1 cells [7] = assay: Apoptosis detection (Annexin V/7-AAD flow cytometry), RWPE-1; conditions: IC50 concentration, 72 h, % of cells
Method: as §5

LNCaP cells [8] = assay: LDH test, LNCaP; conditions: 72 h; tested at 10-60 µM, concentration of quoted value not stated
Method: as §7

[9] = tested on: IL-6 release by DU145 cells; assay: Interleukin-6 ELISA, DU145; conditions: IC50 concentration, 72 h; control 134.475 pg/mL
Method: as §6

Row | SMILES | IC50 (RWPE-1 cells [1]; Homo sapiens, RWPE-1, 72 h) | IC50 (DU-145 cells [2]; Homo sapiens, DU-145, 72 h) | SI DU-145 (DU-145 cells [2]) | IC50 (LNCaP cells [3]; Homo sapiens, LNCaP) | SI LNCaP (LNCaP cells [3]) | SI PC3 (PC3 cells) | IC50 (DU-145 cells [2]) | Early Apoptosis (%), LNCaP (LNCaP cells [4]) | Late apoptosis (%), LNCaP (LNCaP cells [4]) | Late apoptosis (%), LNCaP (LNCaP cells [4]; listed as CP) | IL-6 concentration, LNCaP [5] | Early Apoptosis (%), DU145 (DU-145 cells [6]) | Late apoptosis (%), DU145 (DU-145 cells [6]) | IC50 (LNCaP cells [3]) | released lactate dehydrogenase, DU145 (DU145 cells) | Early Apoptosis (%), RWPE-1 (RWPE-1 cells [7]) | Late apoptosis (%), RWPE-1 (RWPE-1 cells [7]) | released lactate dehydrogenase, LNCaP (LNCaP cells [8]) | IL-6 concentration, DU145 [9] | IC50 (RWPE-1 cells [1]; 72 h)
1 | COc1cccc2c1C(=O)c1c(O)c3c(c(O)c1C2=O)C[C@@](O)(C(=O)CO)C[C@@H]3O[C@H]1C[C@H](N)[C@H](O)[C@H](C)O1 [Doxorubicin] | 650 ± 100 nM | 590 ± 140 nM | 1.1 | 480 ± 210 nM | 1.3 | 2 | – | – | – | – | – | – | – | – | – | – | – | – | – | –
2 | O=C(O)c1cn(C2CC2)c2cc(N3CCNCC3)c(F)cc2c1=O [Ciprofloxacin] | 72100 ± 5200 nM | > 70000 nM | – | > 70000 nM | – | – | 70500 ± 3600 nM | 26.8% | did not affect the late apoptosis | 0.7% | 28.7 pg/mL | 20.8% | 0.3% | 71200 ± 3800 nM | 18.5–24.6% | 2.9% | 1.4% | 18.5–24.6% | 119.72 pg/mL | –
3 | N.N.[Cl][Pt][Cl] [Cisplatin] | – | – | 2 | – | 1.5 | 1.78 | 1360 ± 690 nM | – | – | – | – | – | – | 1780 ± 740 nM | – | – | – | – | – | 2690 ± 1100 nM
